The values below come from patent US11076598B2, “Peroxide-based disinfecting solutions containing inorganic salts” (Diversey, Inc., priority 2017, dated 2021).

Molecules are shown by their SMILES.

The nature of this assay: Antimicrobial efficacy of the inorganic salt on its own. The following applies: salt alone at the concentration employed in the solutions.

Turning to `[Cl-].[Na+]` [sodium chloride], the “antimicrobial efficacy of the salt on its own” value is “no antimicrobial efficacy on its own”.
For the compound `N.N.O=S(=O)(O)O` [ammonium sulphate], the “antimicrobial efficacy of the salt on its own” value is recorded as “no antimicrobial efficacy on its own”.
